Test results taken from patent publication EP0326329B1, “Quinazoline derivatives useful as insecticides” (Dow AgroSciences LLC, priority 1988, dated 1989).

Test system: Southern corn rootworm (Diabrotica undecimpuctata howardi Barber)
Experiment: Mite/insect screen, soil treatment (CRW)
Assay type: in vivo
Conditions: Diabrotica; percent mortality; soil treatment, CRW rate 24.00 ppm; read-out: CRW RESULTS %
Description: (§1) The compounds of Examples 1-203 were tested for miticidal and insecticidal activity in the following mite/insect screen.
(§2) Each test compound was formulated by dissolving the compound in acetone/alcohol (50:50) mixture containing 23 g of "TOXIMUL R" (sulfonate/nonionic emulsifier blend) and 13 g of "TOXIMUL S" (sulfonate/nonionic emulsifier blend) per liter. These mixtures were then diluted with water to give the indicated concentrations.
Activity on Southern corn rootworm (Diabrotica undecimpuctata howardi Barber) was evaluated by adding two ml of tap water, a presoaked corn seed, and 15 g of dry sandy soil to a one ounce plastic container. The soil was treated with 1 mL of test solution containing a pre-determined concentration of test compound. After six to 12 hours of drying, five 2-3 instar corn rootworm larvae were added to the individual cups, which were then capped and held at 23°C.
(§3) After standard exposure periods, percent mortality and phytotoxicity were evaluated. […]

SMILES	mortality at 24 ppm [%]
FC(F)(F)Oc1ccc2ncnc(NCCc3ccc(Oc4ccccc4)cc3)c2c1 [Example 44, 6-(trifluoromethoxy)-N-[2-(4-phenoxyphenyl)ethyl]-4-quinazolinamine]	0
c1ccc(Oc2ccccc2CCNc2ncnc3ccccc23)cc1 [Example 45, N-[2-(2-phenoxyphenyl)ethyl]-4-quinazolinamine]	0
FC(F)(F)c1ccccc1CCOc1ncnc2ccccc12 [Example 47, 4-[2-[2-(trifluoromethyl)phenyl]ethoxy]quinazoline]	0
Fc1ccccc1CCOc1ncnc2ccccc12 [Example 48, 4-[2-(2-fluorophenyl)ethoxy]quinazoline]	0
COc1ccc(CCOc2ncnc3ccccc23)cc1 [Example 49, 4-[2-(4-methoxyphenyl)ethoxy]quinazoline]	0
FC(F)(F)c1cccc(CCOc2ncnc3ccccc23)c1 [Example 51, 4-[2-[3-(trifluoromethyl)phenyl]ethoxy]quinazoline]	0

Same assay, conditions: percent mortality; rate not given

SMILES	CRW RESULTS % [%]
COc1ccc(CCOc2ncnc3ccccc23)cc1 [Example 49, 4-[2-(4-methoxyphenyl)ethoxy]quinazoline]	0

Test system: southern armyworm (Spodopetra eridania Cramer)
Experiment: Mite/insect screen, sprayed squash leaves (SAW)
Assay type: in vivo
Conditions: Spodoptera eridania, percent mortality; spray rate 400 ppm; read-out: SAW RESULTS %
Description: as §1, §2
(§4) Other plants in the same treatment pot were left uninfested. The leaves were then sprayed with 5 ml of test solution using a DeVilbiss atomizing sprayer at 10 psi. Both surfaces of the leaves were covered until runoff, and then allowed to dry for one hour. Two uninfested leaves were then excised and placed into a Petri dish containing larval southern armyworm (Spodopetra eridania Cramer).
as §3

SMILES	mortality at 400 ppm [%]
FC(F)(F)Oc1ccc2ncnc(NCCc3ccc(Oc4ccccc4)cc3)c2c1 [Example 44, 6-(trifluoromethoxy)-N-[2-(4-phenoxyphenyl)ethyl]-4-quinazolinamine]	0
c1ccc(Oc2ccccc2CCNc2ncnc3ccccc23)cc1 [Example 45, N-[2-(2-phenoxyphenyl)ethyl]-4-quinazolinamine]	0
FC(F)(F)c1ccccc1CCOc1ncnc2ccccc12 [Example 47, 4-[2-[2-(trifluoromethyl)phenyl]ethoxy]quinazoline]	0
Fc1ccccc1CCOc1ncnc2ccccc12 [Example 48, 4-[2-(2-fluorophenyl)ethoxy]quinazoline]	0
COc1ccc(CCOc2ncnc3ccccc23)cc1 [Example 49, 4-[2-(4-methoxyphenyl)ethoxy]quinazoline]	0
FC(F)(F)c1cccc(CCOc2ncnc3ccccc23)c1 [Example 51, 4-[2-[3-(trifluoromethyl)phenyl]ethoxy]quinazoline]	0

Same assay, conditions: percent mortality; rate not given

SMILES	SAW RESULTS % [%]
COc1ccc(CCOc2ncnc3ccccc23)cc1 [Example 49, 4-[2-(4-methoxyphenyl)ethoxy]quinazoline]	0

Test system: Twospotted spider mites (Tetranychus urticae Koch)
Experiment: Mite/insect screen, sprayed squash cotyledons (SM)
Assay type: in vivo
Conditions: Tetranychus urticae, percent mortality; spray rate 400 ppm; read-out: SM RESULTS %
Description: as §1, §2, §4, §3

SMILES	mortality at 400 ppm [%]
FC(F)(F)Oc1ccc2ncnc(NCCc3ccc(Oc4ccccc4)cc3)c2c1 [Example 44, 6-(trifluoromethoxy)-N-[2-(4-phenoxyphenyl)ethyl]-4-quinazolinamine]	0
c1ccc(Oc2ccccc2CCNc2ncnc3ccccc23)cc1 [Example 45, N-[2-(2-phenoxyphenyl)ethyl]-4-quinazolinamine]	0
FC(F)(F)c1ccccc1CCOc1ncnc2ccccc12 [Example 47, 4-[2-[2-(trifluoromethyl)phenyl]ethoxy]quinazoline]	0
Fc1ccccc1CCOc1ncnc2ccccc12 [Example 48, 4-[2-(2-fluorophenyl)ethoxy]quinazoline]	90
COc1ccc(CCOc2ncnc3ccccc23)cc1 [Example 49, 4-[2-(4-methoxyphenyl)ethoxy]quinazoline]	80
FC(F)(F)c1cccc(CCOc2ncnc3ccccc23)c1 [Example 51, 4-[2-[3-(trifluoromethyl)phenyl]ethoxy]quinazoline]	0

Same assay, conditions: percent mortality; rate not given

SMILES	SM RESULTS % [%]
COc1ccc(CCOc2ncnc3ccccc23)cc1 [Example 49, 4-[2-(4-methoxyphenyl)ethoxy]quinazoline]	90

Test system: Pseudoperonospora cubensis (downy mildew)
Experiment: Greenhouse Test 1, foliar spray fungicide screen (DOWN MDEW), host squash
Assay type: in vivo
Conditions: disease control rating, 400 ppm (+++ at 100 ppm)

SMILES	DOWN MDEW
FC(F)(F)Oc1ccc2ncnc(NCCc3ccc(Oc4ccccc4)cc3)c2c1 [Example 44, 6-(trifluoromethoxy)-N-[2-(4-phenoxyphenyl)ethyl]-4-quinazolinamine]	+ (+ = 20-89% control at 400 ppm)
c1ccc(Oc2ccccc2CCNc2ncnc3ccccc23)cc1 [Example 45, N-[2-(2-phenoxyphenyl)ethyl]-4-quinazolinamine]	+ (+ = 20-89% control at 400 ppm)
FC(F)(F)c1ccccc1CCOc1ncnc2ccccc12 [Example 47, 4-[2-[2-(trifluoromethyl)phenyl]ethoxy]quinazoline]	+++ (+++ = 90-100% control at 100 ppm)
Fc1ccccc1CCOc1ncnc2ccccc12 [Example 48, 4-[2-(2-fluorophenyl)ethoxy]quinazoline]	++ (++ = 90-100% control at 400 ppm)
COc1ccc(CCOc2ncnc3ccccc23)cc1 [Example 49, 4-[2-(4-methoxyphenyl)ethoxy]quinazoline]	+++ (+++ = 90-100% control at 100 ppm)
FC(F)(F)c1cccc(CCOc2ncnc3ccccc23)c1 [Example 51, 4-[2-[3-(trifluoromethyl)phenyl]ethoxy]quinazoline]	+++ (+++ = 90-100% control at 100 ppm)

Test system: Pyricularia oryzae (rice blast)
Experiment: not given
Assay type: in vivo
Conditions: disease control rating, foliar spray, host rice; 400 ppm (+++ at 100 ppm)

SMILES	RICE BLAST
FC(F)(F)Oc1ccc2ncnc(NCCc3ccc(Oc4ccccc4)cc3)c2c1 [Example 44, 6-(trifluoromethoxy)-N-[2-(4-phenoxyphenyl)ethyl]-4-quinazolinamine]	- (- = 0-19% control at 400 ppm)
c1ccc(Oc2ccccc2CCNc2ncnc3ccccc23)cc1 [Example 45, N-[2-(2-phenoxyphenyl)ethyl]-4-quinazolinamine]	- (- = 0-19% control at 400 ppm)
FC(F)(F)c1ccccc1CCOc1ncnc2ccccc12 [Example 47, 4-[2-[2-(trifluoromethyl)phenyl]ethoxy]quinazoline]	+++ (+++ = 90-100% control at 100 ppm)
Fc1ccccc1CCOc1ncnc2ccccc12 [Example 48, 4-[2-(2-fluorophenyl)ethoxy]quinazoline]	+ (+ = 20-89% control at 400 ppm)
COc1ccc(CCOc2ncnc3ccccc23)cc1 [Example 49, 4-[2-(4-methoxyphenyl)ethoxy]quinazoline]	+++ (+++ = 90-100% control at 100 ppm)
FC(F)(F)c1cccc(CCOc2ncnc3ccccc23)c1 [Example 51, 4-[2-[3-(trifluoromethyl)phenyl]ethoxy]quinazoline]	+++ (+++ = 90-100% control at 100 ppm)

Test system: Botrytis cinerea (gray mold)
Experiment: Greenhouse Test 1, foliar spray fungicide screen (GRAY MOLD), host grape berries
Assay type: in vivo
Conditions: disease control rating, 400 ppm (+++ at 100 ppm)

SMILES	GRAY MOLD
FC(F)(F)Oc1ccc2ncnc(NCCc3ccc(Oc4ccccc4)cc3)c2c1 [Example 44, 6-(trifluoromethoxy)-N-[2-(4-phenoxyphenyl)ethyl]-4-quinazolinamine]	- (- = 0-19% control at 400 ppm)
c1ccc(Oc2ccccc2CCNc2ncnc3ccccc23)cc1 [Example 45, N-[2-(2-phenoxyphenyl)ethyl]-4-quinazolinamine]	- (- = 0-19% control at 400 ppm)
FC(F)(F)c1ccccc1CCOc1ncnc2ccccc12 [Example 47, 4-[2-[2-(trifluoromethyl)phenyl]ethoxy]quinazoline]	- (- = 0-19% control at 400 ppm)
Fc1ccccc1CCOc1ncnc2ccccc12 [Example 48, 4-[2-(2-fluorophenyl)ethoxy]quinazoline]	- (- = 0-19% control at 400 ppm)
COc1ccc(CCOc2ncnc3ccccc23)cc1 [Example 49, 4-[2-(4-methoxyphenyl)ethoxy]quinazoline]	- (- = 0-19% control at 400 ppm)
FC(F)(F)c1cccc(CCOc2ncnc3ccccc23)c1 [Example 51, 4-[2-[3-(trifluoromethyl)phenyl]ethoxy]quinazoline]	- (- = 0-19% control at 400 ppm)

Test system: Puccinia recondita tritici (leaf rust)
Experiment: Greenhouse Test 1, foliar spray fungicide screen (LEAF RUST), host wheat
Assay type: in vivo
Conditions: disease control rating, 400 ppm (+++ at 100 ppm)

SMILES	LEAF RUST
FC(F)(F)Oc1ccc2ncnc(NCCc3ccc(Oc4ccccc4)cc3)c2c1 [Example 44, 6-(trifluoromethoxy)-N-[2-(4-phenoxyphenyl)ethyl]-4-quinazolinamine]	- (- = 0-19% control at 400 ppm)
c1ccc(Oc2ccccc2CCNc2ncnc3ccccc23)cc1 [Example 45, N-[2-(2-phenoxyphenyl)ethyl]-4-quinazolinamine]	+++ (+++ = 90-100% control at 100 ppm)
FC(F)(F)c1ccccc1CCOc1ncnc2ccccc12 [Example 47, 4-[2-[2-(trifluoromethyl)phenyl]ethoxy]quinazoline]	+++ (+++ = 90-100% control at 100 ppm)
Fc1ccccc1CCOc1ncnc2ccccc12 [Example 48, 4-[2-(2-fluorophenyl)ethoxy]quinazoline]	+++ (+++ = 90-100% control at 100 ppm)
COc1ccc(CCOc2ncnc3ccccc23)cc1 [Example 49, 4-[2-(4-methoxyphenyl)ethoxy]quinazoline]	+++ (+++ = 90-100% control at 100 ppm)
FC(F)(F)c1cccc(CCOc2ncnc3ccccc23)c1 [Example 51, 4-[2-[3-(trifluoromethyl)phenyl]ethoxy]quinazoline]	++ (++ = 90-100% control at 400 ppm)

Test system: Erysiphe graminis tritici (powdery mildew)
Experiment: Greenhouse Test 1, foliar spray fungicide screen (POWD MDEW), host wheat
Assay type: in vivo
Conditions: disease control rating, 400 ppm (+++ at 100 ppm)

SMILES	POWD MDEW
FC(F)(F)Oc1ccc2ncnc(NCCc3ccc(Oc4ccccc4)cc3)c2c1 [Example 44, 6-(trifluoromethoxy)-N-[2-(4-phenoxyphenyl)ethyl]-4-quinazolinamine]	- (- = 0-19% control at 400 ppm)
c1ccc(Oc2ccccc2CCNc2ncnc3ccccc23)cc1 [Example 45, N-[2-(2-phenoxyphenyl)ethyl]-4-quinazolinamine]	+ (+ = 20-89% control at 400 ppm)
FC(F)(F)c1ccccc1CCOc1ncnc2ccccc12 [Example 47, 4-[2-[2-(trifluoromethyl)phenyl]ethoxy]quinazoline]	+++ (+++ = 90-100% control at 100 ppm)
Fc1ccccc1CCOc1ncnc2ccccc12 [Example 48, 4-[2-(2-fluorophenyl)ethoxy]quinazoline]	+++ (+++ = 90-100% control at 100 ppm)
COc1ccc(CCOc2ncnc3ccccc23)cc1 [Example 49, 4-[2-(4-methoxyphenyl)ethoxy]quinazoline]	+++ (+++ = 90-100% control at 100 ppm)
FC(F)(F)c1cccc(CCOc2ncnc3ccccc23)c1 [Example 51, 4-[2-[3-(trifluoromethyl)phenyl]ethoxy]quinazoline]	++ (++ = 90-100% control at 400 ppm)

Test system: melon aphids (Aphis gossypii Glover)
Experiment: Mite/insect screen, sprayed squash cotyledons (MA)
Assay type: in vivo
Conditions: Aphis gossypii, percent mortality; spray rate 400 ppm; read-out: MA RESULTS %
Description: as §1, §2, §4, §3

SMILES	mortality at 400 ppm [%]
FC(F)(F)Oc1ccc2ncnc(NCCc3ccc(Oc4ccccc4)cc3)c2c1 [Example 44, 6-(trifluoromethoxy)-N-[2-(4-phenoxyphenyl)ethyl]-4-quinazolinamine]	0
c1ccc(Oc2ccccc2CCNc2ncnc3ccccc23)cc1 [Example 45, N-[2-(2-phenoxyphenyl)ethyl]-4-quinazolinamine]	0
FC(F)(F)c1ccccc1CCOc1ncnc2ccccc12 [Example 47, 4-[2-[2-(trifluoromethyl)phenyl]ethoxy]quinazoline]	0
Fc1ccccc1CCOc1ncnc2ccccc12 [Example 48, 4-[2-(2-fluorophenyl)ethoxy]quinazoline]	100
COc1ccc(CCOc2ncnc3ccccc23)cc1 [Example 49, 4-[2-(4-methoxyphenyl)ethoxy]quinazoline]	0
FC(F)(F)c1cccc(CCOc2ncnc3ccccc23)c1 [Example 51, 4-[2-[3-(trifluoromethyl)phenyl]ethoxy]quinazoline]	0

Same assay, conditions: percent mortality; rate not given

SMILES	MA RESULTS % [%]
COc1ccc(CCOc2ncnc3ccccc23)cc1 [Example 49, 4-[2-(4-methoxyphenyl)ethoxy]quinazoline]	100
